# Measurements taken from US20240358693A1, “METHODS OF TREATING PAIN” (Aisa Pharma, Inc., priority 2023, published 2024).
# Test system: participants with Raynaud's Phenomenon secondary mostly to systemic sclerosis (SSc-RP)
# Assay: Frequency of weekly symptomatic RP attacks (patient diary), Phase 2a study Part A
# Type: in vivo, human
# Protocol: A randomized, placebo-controlled phase 2a study was performed and is in progress to assess the safety and efficacy of cilnidipine (10 mg and 20 mg) alone and in combination with 5 mg tadalafil, in participants with diagnosis of scleroderma and/or secondary Raynaud's disease.
# The relevant metrics measured by this tool daily are: • Study medication • SSc-RP symptoms (Reporting an attack including duration of attack) • Severity of the attack considering all symptoms of the attack e.g., tingling, numbness, pain, color changes (VAS 0-10 cm scale) • Participant's location at the time of the attack (inside home/outside home) • Selecting symptoms experienced during the attack (tingling, numbness, pain, color changes, other) • Pain rating during the attack (11-point Likert scale) • The RCS based on how much difficulty participants had with Raynaud's today, how many attacks the participant had, and how long they lasted. Participants will also be asked to consider how much pain, numbness, or other symptoms the Raynaud's caused in fingers (including painful sores), and how much the Raynaud's alone affected the use of hands today (VAS 0-10 cm scale).
# Percent change from baseline evaluation for frequency of weekly RP attacks were or will be used as the primary efficacy variable. The sponsor-developed participant-informed diary will be used to record data. Frequency of weekly RP attacks is defined as the total number of RP attacks divided by the number of days with available diary data within the last 7 days of each dosing period then multiplied by 7. Total number of RP attacks during the last 7 days of screening period divided by the number of days with available data then multiplied by 7 will be used as baseline for the analysis of all periods. The variable will be calculated as follows:
# Percentage change={(weekly RP attacks for the last 7 days of each dosing period−Baseline weekly RP attacks)/Baseline weekly RP attacks}*100%.
# Absolute change=weekly RP attacks for the last 7 days of each dosing period−Baseline weekly RP attacks
# Percent change from baseline evaluation for frequency of weekly RP attacks was and will be the primary efficacy endpoint. Frequency of weekly RP attacks is defined as the total number of RP attacks divided by the number of days with available diary data within the last 7 days of each dosing period then multiplied by 7. Total number of RP attacks during the last 7 days of screening period divided by the number of days with available data then multiplied by 7 will be used as baseline for the analysis of all periods.
# The following data was actually obtained in accordance with the protocol and plan delineated in Examples 1 and 2. The accompanying data involved 11 patients out of the planned 76 patient study. The study was done in patients with scleroderma (systemic sclerosis) who had relatively frequent Raynaud symptoms as they needed to average at least one attack per day during a screening period of up to two weeks. In this first phase of this double-blind placebo-controlled, prospective randomized study, patients were treated in parallel and after meeting study criteria were randomized to receive either placebo, cilnidipine 10 mg daily, cilnidipine 20 mg daily, tadalafil 5 mg daily, cilnidipine 10 mg plus 5 mg of tadalafil, or cilnidipine 20 mg plus 5 mg of tadalafil.
# [1] = Tadalafil 5 mg (N = 2), ITT Part A
# [2] = Tadalafil 5 mg, n 1, Excluding Outliers, ITT Part A
# [3] = Tadalafil 5 mg, n 2, by Baseline RCS, 2nd block (RCS >5.0), ITT Part A
# [4] = excluding outliers, by baseline RCS, second subgroup, cilnidipine 10 mg, tadalafil 5 mg daily
smiles,measurement,setting,value
"CN1CC(=O)N2[C@H](c3ccc4c(c3)OCO4)c3[nH]c4ccccc4c3C[C@@H]2C1=O [Tadalafil, tadalafil]","Weekly Symptomatic RP Attacks Change from Baseline, Mean",[1],4.50
same,"Weekly Symptomatic RP Attacks Change from Baseline, Median",[1],4.50
same,"Weekly Symptomatic RP Attacks Percent Change from Baseline, Mean",[1],62.50%
same,"Weekly Symptomatic RP Attacks Percent Change from Baseline, Median",[1],62.50%
same,"Weekly Symptomatic RP Attacks, Mean",[1],12.50
same,"Weekly Symptomatic RP Attacks, Median",[1],12.50
same,"Weekly Symptomatic RP Attacks Change from Baseline, Mean (SD)",[2],6.00
same,"Weekly Symptomatic RP Attacks Change from Baseline, Median",[2],6.00
same,"Weekly Symptomatic RP Attacks Percent Change from Baseline, Mean (SD)",[2],50.00%
same,"Weekly Symptomatic RP Attacks Percent Change from Baseline, Median",[2],50.00%
same,"Weekly Symptomatic RP Attacks, Mean (SD)",[2],18.00
same,"Weekly Symptomatic RP Attacks, Median",[2],18.00
same,"Weekly Symptomatic RP Attacks Change from Baseline, Mean (SD)",[3],4.50 (2.121)
same,"Weekly Symptomatic RP Attacks Change from Baseline, Median",[3],4.50
same,"Weekly Symptomatic RP Attacks Percent Change from Baseline, Mean (SD)",[3],62.50 (17.678) %
same,"Weekly Symptomatic RP Attacks Percent Change from Baseline, Median",[3],62.50%
same,"Weekly Symptomatic RP Attacks, Mean (SD)",[3],12.50 (7.778)
same,"Weekly Symptomatic RP Attacks, Median",[3],12.50
same,"Weekly Symptomatic RP Attacks Change from Baseline, Max",[4],"6.0, 6.0"
same,"Weekly Symptomatic RP Attacks Change from Baseline, Mean (SD)",[4],6.00
same,"Weekly Symptomatic RP Attacks Change from Baseline, Median",[4],6.00
same,"Weekly Symptomatic RP Attacks Change from Baseline, Min",[4],"6.0, 6.0"
same,"Weekly Symptomatic RP Attacks Change from Baseline, Q1",[4],"6.00, 6.00"
same,"Weekly Symptomatic RP Attacks Change from Baseline, Q3",[4],"6.00, 6.00"
same,"Weekly Symptomatic RP Attacks Percent Change from Baseline, Max",[4],"50.0, 50.0%"
same,"Weekly Symptomatic RP Attacks Percent Change from Baseline, Mean (SD)",[4],50.00%
same,"Weekly Symptomatic RP Attacks Percent Change from Baseline, Median",[4],50.00%
same,"Weekly Symptomatic RP Attacks Percent Change from Baseline, Min",[4],"50.0, 50.0%"
same,"Weekly Symptomatic RP Attacks Percent Change from Baseline, Q1",[4],"50.00, 50.00%"
same,"Weekly Symptomatic RP Attacks Percent Change from Baseline, Q3",[4],"50.00, 50.00%"
same,"Weekly Symptomatic RP Attacks, Max",[4],"18.0, 18.0"
same,"Weekly Symptomatic RP Attacks, Mean (SD)",[4],18.00
same,"Weekly Symptomatic RP Attacks, Median",[4],18.00
same,"Weekly Symptomatic RP Attacks, Min",[4],"18.0, 18.0"
same,"Weekly Symptomatic RP Attacks, Q1",[4],"18.00, 18.00"
same,"Weekly Symptomatic RP Attacks, Q3",[4],"18.00, 18.00"
